What all share (assay): NCI tumour cell line growth inhibition, 48 h
For assay [1], the system named is KM12 colon.
Assay [2] deals with OVCAR-8 ovarian.
Assay [3] has as its system M14 melanoma.
The test system of assay [4] is U251 CNS.
The test system of assay [5] is HS 578T breast.
For assay [6], the system named is SN12C renal.
The test system of assay [7] is EKVX NSCLC.
Assay [8] relates to BT-549 breast.
Assay [9] concerns MOLT-4 leukemia.
Assay [10] relates to T-47D breast.

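All cell lines were grown in 96-well plates and treated with compound for 48 hours. GI50 = concentration required for 50% inhibition of growth. TGI is the concentration that stops growth completely.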 *1 amine or outer side, *2 acyl side, *3 side chain or, on linkers, in order; H or OH if unused. Where a SMILES comes first, the peptide text is derived from it. Bridges are numbered along the chain shown (N, C = ends). [ ]: non-standard residue; d: D form. The star is where a group is joined. X38 = CC[C@H](C)[C@@H](N[*:1])[C@@H](O)CC(=O)[*:2]; NMeY = CN[C@@H](Cc1ccc(O)cc1)C(=O)O; dNMeL = CN[C@H](CC(C)C)C(=O)O; Hiv = CC(C)[C@H](O)C(=O)O; Pyruvoyl = CC(=O)C(=O)* Some results are limits rather than exact numbers.

The source of these data is PubChem BioAssay (NCI).

As to `Cc1nc2sc(CCl)nn2c(=O)c1Cl`, the TGI in assay [1] amounted to 25.2 µM; in assay [2], 31.4 µM; in assay [3], 26.9 µM; in [4], 19.2 µM; in [5], 47.3 µM; in [6], 26.6 µM. Also, the TGI in assay [7] came to 27.7 µM; in assay [8], 15.6 µM; in assay [9], 26.7 µM; in assay [10] it was 28.3 µM.
Regarding `CC[C@H](C)[C@H]1NC(=O)[C@@H](NC(=O)[C@@H](CC(C)C)N(C)C(=O)[C@@H]2CCCN2C(=O)C(C)=O)[C@@H](C)OC(=O)[C@H](Cc2ccc(OC)cc2)N(C)C(=O)[C@@H]2CCCN2C(=O)[C@H](CC(C)C)NC(=O)[C@H](C(C)C)OC(=O)C[C@@H]1O` (Pyruvoyl-P[dNMeL]T[X38][Hiv]LP[NMeY](Me); ester 3-C), the TGI turned out to be 0.151 µM in assay [1]; 0.342 µM in assay [2]; 0.0261 µM in [3]; 0.154 µM in [4]; 0.283 µM in [5]; 0.0476 µM in assay [6]. Besides, the TGI turned out to be 0.0103 µM in assay [7], 0.0181 µM in assay [8], 0.0373 µM in [9] and 0.0113 µM in assay [10].
Take `CCOC(=O)/C(N=Nc1ccc(-n2c(C)nc3ccccc3c2=O)cc1)=C(/C)O`: the TGI was 37.4 µM in assay [1]; 50.5 µM in [2]; above 100 µM in assay [3]; above 100 µM in assay [4]; 63.6 µM in assay [5]; above 100 µM in [6]. The TGI was above 100 µM in assay [7], above 100 µM in assay [8], 64.1 µM in assay [9] and 92.3 µM in assay [10].
Regarding `CCOC(=O)CCC(NC(=O)Cc1ccc(Nc2nc3ccccc3nc2-c2ccccc2)cc1)C(=O)OCC` (stereo not given), the TGI was above 100 µM in assay [1]; above 100 µM in assay [2]; above 100 µM in assay [3]; 78.1 µM in [4]; 74.6 µM in assay [5]; above 100 µM in assay [6]. Also, the TGI in assay [7], in assay [8], in assay [9] and in assay [10] was above 100 µM in each case.
`O=C1NC(N2CCOCC2)=N/C1=C\c1cccs1`: the TGI in [1], in [2], in [3], in assay [4], in assay [5] and in assay [6] was above 100 µM each time. Besides, the TGI in assay [7], in assay [8], in [9] and in assay [10] was above 100 µM each time.
For `Fc1cc(C2=C[C@H](c3ccc(Cl)cc3)NC(=S)N2)c(Cl)cc1Cl`, the TGI in [1] is above 100 µM; in [2], above 100 µM; in assay [3] it was above 100 µM; in assay [4], above 100 µM; in [5] it was above 100 µM; in assay [6], 79.6 µM. Also, the TGI in assay [7], in [8], in assay [9] and in assay [10] was above 100 µM throughout.
Consider `COc1ccc(/C=C(\Cl)c2ccc(OC)c(OC)c2)cc1OC`, for which the TGI in [1], in [2], in assay [3], in [4], in [5] and in assay [6] was above 100 µM each time. The TGI in [7], in [8], in assay [9] and in assay [10] was above 100 µM in each case.
Regarding `Cc1occc1C(=S)Nc1ccc(Cl)c(C(=O)OCC(F)(F)F)c1`, the TGI in [1] was 44.4 µM; in assay [2], 36.2 µM; in [3], above 100 µM; in assay [4] it was 39.3 µM; in assay [5], above 100 µM; in assay [6], 41.4 µM. Also, the TGI in assay [7] is 64.2 µM; in assay [8] it was 42.7 µM; in assay [9], 55.8 µM; in [10] it was 72.4 µM.
For `COc1ccc2c(c1)CC[C@@H]1[C@@H]2CC[C@]2(C)C(=O)C3(CCCCC3)C[C@@H]12`, the GI50 in assay [1] is above 100 µM; in assay [2], above 100 µM; in assay [3], above 100 µM; in assay [4], above 100 µM; in [5], 88.1 µM; in [6] it was above 100 µM. The GI50 in assay [7], in [8], in assay [9] and in assay [10] was above 100 µM each time. Also, the TGI in assay [1], in [2], in assay [3], in assay [4], in [5] and in assay [6] was above 100 µM throughout. Further, the TGI in [7], in assay [8], in [9] and in [10] was above 100 µM throughout.
With `COc1ccc(C2c3cc4c(cc3C(O)C3CCC(=O)N23)OCO4)cc1` (stereo not given), the TGI in assay [1], in assay [2], in assay [3], in assay [4], in assay [5] and in assay [6] was above 100 µM in each case. The TGI in [7], in [8], in assay [9] and in assay [10] was above 100 µM throughout.
For the compound `C[C@H]1[C@H](C)N(Cc2ccccc2)P(=O)(C(O)/C=C/c2ccccc2)N1Cc1ccccc1` (stereo not given in full), the TGI in [1] was above 25 µM; in [2], above 25 µM; in [3], 9.05 µM; in assay [4], 10 µM; in assay [5], 12.3 µM; in assay [6] it was 8.75 µM. Besides, the TGI in assay [7] was 24.9 µM; in [8] it was above 25 µM; in [9], above 25 µM; in [10] it was 22.9 µM.
